Laboratory results reported in US5344780A, “Method for determining indole compounds associated with boar taint in pork as well as a sample container to be used in the method” (priority 1990, dated 1994).
Values joined by “and” are separate entries in the source; they are usually repeats but may differ in a detail not shown here. Equal entries are not always repeated.

Test: HPLC-analysis of extracted lard with heating (Example 1; also reproducibility test)
Set-up: species or system pig
Method: The present Example illustrates the extraction on the entire sample of lard and the determination of indole and skatole by HPLC.
A sample of lard of 5 g is taken subcutaneously from the occipital region of a carcass. The sample is placed in a container and heated at 80° C. for 10 minutes in microwave oven in order to melt the fat. An amount of 5 ml of methanol is then added to the sample which is shaken, whereupon the sample is extracted for 10 minutes. Subsequently, the sample is filtered to remove the fat and connective tissue and analyzed by HPLC under the following conditions:
HPLC-apparatus: Merck HPLC with fluorescence detector and autosampler,
Eluant: water:methanol (20:80) (volume:volume)
Fluorescence detector: excitation wavelength=285 nm, emission wavelength=340 nm
Column: Lichrocart 250-4, Lichrospher 100 RP18, 5 micron, reverse phase
Injection volume: 20 microliter,
Detection limit: 5 ppb (0,005 ppm) in solution […]
The samples were such analyzed 10 times.

ppb skatole at HPLC-analysis, overall average (Table 2, 4 samples, n = 40): 48.47 ppb
ppb skatole at HPLC-analysis, lowest (Table 2, samples 1-4): 44.13 ppb and 43.87 ppb and 49.07 ppb
ppb skatole at HPLC-analysis, overall average (Table 3, 3 samples, n = 30): 71.38 ppb
ppb skatole at HPLC-analysis (Table 3, sample 3, analyses 1-10): 72.00 ppb and 69.33 ppb and 66.67 ppb
ppb skatole at HPLC-analysis, highest (Table 3, samples 1-3): 77.33 ppb and 74.67 ppb and 72.00 ppb
ppb skatole at HPLC-analysis, lowest (Table 3, samples 1-3): 69.33 ppb and 66.67 ppb
ppb skatole at HPLC-analysis, average per sample (Table 3, samples 1-3, 10 analyses each): 73.60 ppb and 70.13 ppb and 70.40 ppb
SMILES: Cc1c[nH]c2ccccc12 [Skatole, skatole]
ppb skatole at HPLC-analysis, highest (Table 2, samples 1-4): 50.00 ppb and 50.93 ppb and 52.80 ppb and 51.87 ppb
ppb skatole at HPLC-analysis, average per sample (Table 2, samples 1-4, 10 analyses each): 47.61 ppb and 47.63 ppb and 50.67 ppb and 47.96 ppb
ppb skatole at HPLC-analysis (Table 3, sample 1, analyses 1-10): 72.00 ppb and 69.33 ppb and 74.67 ppb and 77.33 ppb
ppb skatole at HPLC-analysis (Table 3, sample 2, analyses 1-10): 74.67 ppb and 69.33 ppb and 66.67 ppb and 72.00 ppb
